Columns and labels:
[1] = system: NF-κB localization in RAW 264.7 macrophages; test: Immunofluorescence, NF-κB localization; type: cell-based, murine; details: 25 µM, co-treated with LPS 1 µg/mL
Procedure: (§1) After a PBS wash, cells were fixed using cold methanol (15 min at −20 °C) and incubated overnight at 4 °C with the primary antibodies raised against NF-κB, iNOS, TNF-α, and COX-1 and 2 (Santa Cruz Biotechnology Inc., Santa Cruz, CA, USA) diluted in BSA 2%, as previously described. […] DAPI (Sigma Aldrich, Milan, Italy) 0.2 µg/mL was added for 10 min for nuclei counterstaining. A fluorescence microscope (Leica DM 6000) was used for visualizing images, and LAS-X software 3.5.7.23225 was used for acquisition and processing.

[2] = system: Salmonella typhimurium (ATCC 14028); test: MIC/MBC broth dilution; type: cell-based
Procedure: (§2) The bacterial strains used for MIC and MBC value determinations expressed as µg/mL by the broth dilution method, according to CLSI guidelines, were the following:
(§3) Increasing concentrations of the complexes (50, 70, 100, 150, and 200 µg/mL) were incubated with bacteria plated in 96-well microplates at 37 °C overnight as already reported, and then bacterial growth was checked at a wavelength of 600 nm using a Multiskan spectrophotometer (model Multiskan Ex Microplate; Thermo Scientific, Nyon, Switzerland). MIC or MBC values were obtained by comparing cell density with a positive control (bacterial cells grown in LB medium were added with only the vehicle, DMSO). […] Ampicillin, Gentamicin, and Cephalosporin (Sigma Aldrich A9393) were used as the control for strain sensitivity.

[3] = system: Pseudomonas aeruginosa (ATCC 15442); test: MIC/MBC broth dilution; type: cell-based
Procedure: as §2, §3

[4] = system: human mammary epithelial cell line MCF-10A; test: MTT assay, toxicity towards normal cells; type: cell-based; details: 72 h
Procedure: (§4) The cell lines used were purchased from American Type Culture Collection (ATCC, Manassas, VA, USA). Human breast cancer cells MCF-7 and MDA-MB-231, human mammary epithelial cell line MCF-10A, and mouse BALB/3T3 embryonic fibroblasts were cultured as already described by some of us. The murine macrophage cell line RAW 264.7 was maintained in Dulbecco’s Modified Eagle’s Medium (DMEM) high glucose (4.5 g/L) supplemented with 10% Fetal Bovine Serum (FBS), 1% L-glutamine, and 100 units/mL of penicillin/streptomycin. The cell cultures were maintained at the temperature of 37 °C in a humidified atmosphere containing 5% CO2.
(§5) The 3-(4,5-dimethylthiazol-2-yl)-2,5-diphenyl-2H-tetrazolium bromide (MTT) assay (Sigma Aldrich (St. Louis, MO, USA)) was carried out to study the in vitro anticancer activities of the complexes, following the previously reported protocol. The cells were incubated for 72 h with different concentrations of the tested compounds (0.1, 1, 10, 25, 50, 100, and 500 µM) and the IC50 values were calculated from the percent (%) of control using the software GraphPad Prism 9 (GraphPad Software, La Jolla, CA, USA).

[5] = system: NO production in LPS-stimulated RAW 264.7 macrophages; test: Griess assay, NO production; type: cell-based, murine; details: 25 µM, LPS 1 µg/mL, 24 h
Procedure: The Griess assay was performed using RAW 264.7 murine macrophages to study the anti-inflammatory activity in terms of NO production. RAW 264.7 cells were plated in the 48 multi-wells and, after 24 h, treated with the tested molecules (25 µM) and the lipopolysaccharide (LPS, Sigma Aldrich, Milan, Italy) at a final concentration of 1 µg/mL. LPS is able to induce inflammation by stimulating NO production in immune system cells such as macrophages. After 24 h, the cell medium Griess reagent (Sigma Aldrich, Milan, Italy) was mixed in with a ratio of 1:1. The Griess reagent allowed for the quantification of NO released by macrophages in the treatment medium. The mixture was left for 30 min under agitation and, subsequently, the absorbance at 540 nm was measured using a multiplate reader. The obtained absorbance allowed us to calculate the NO production % compared to the absorbance obtained for the positive control, in which the cells were treated with LPS.

[6] = DPPH radical scavenging assay; type: biochemical
Procedure: The radical scavenging properties of the complexes on the 1,1-diphenyl-2-picrylhydrazil (DPPH) radical were evaluated as previously described.
All the complexes were used at different concentrations (10, 25, 50, 100, and 200 µg/mL) and the DPPH radical scavenging activity, measured at 517 nm using a microplate reader, was expressed as inhibition percentages (%IDPPH) compared to the initial concentration of DPPH (control) according to the following expression:(2) IDPPH (%)=ABSCTRL−ABSsample/ABSCTRL∗100 where ABSCTRL and ABSsample are the absorbance at 517 nm in the control and in the presence of samples, respectively.
The obtained IDPPH percentages allowed us to calculate the IC50 values using Graph-Pad Prism 9 software (GraphPad Inc., San Diego, CA, USA). Trolox was employed as a positive control, while caffeine and theophylline were reference compounds.

[7] = system: COX-2 expression in RAW 264.7 macrophages; test: Immunofluorescence, COX-2 expression; type: cell-based, murine; details: 25 µM, co-treated with LPS 1 µg/mL
Procedure: as §1

[8] = system: Escherichia coli (ATCC 25922); test: MIC/MBC broth dilution; type: cell-based
Procedure: as §2
(§6) -4 Gram-negative: Escherichia coli (ATCC® 25922^TM) and Klebsiella pneumoniae (ATCC® 13883^TM);
(§7) Increasing concentrations of the complexes (50, 70, 100, 150, and 200 µg/mL) were incubated with bacteria plated in 96-well microplates at 37 °C overnight as already reported, and then bacterial growth was checked at a wavelength of 600 nm using a Multiskan spectrophotometer (model Multiskan Ex Microplate; Thermo Scientific, Nyon, Switzerland). MIC or MBC values were obtained by comparing cell density with a positive control (bacterial cells grown in LB medium were added with only the vehicle, DMSO). The results were representative of three independent experiments performed in triplicate. Ampicillin, Gentamicin, and Cephalosporin (Sigma Aldrich A9393) were used as the control for strain sensitivity.

[9] = system: Klebsiella pneumoniae (ATCC 13883); test: MIC/MBC broth dilution; type: cell-based
Procedure: as §2, §6, §7

[10] = system: Staphylococcus aureus (ATCC 23235); test: MIC/MBC broth dilution; type: cell-based
Procedure: as §2
(§8) -3 Gram-positive: Enterococcus faecalis (ATCC® 19433^TM), Staphylococcus aureus (ATCC® 23235^TM), and Staphylococcus epidermidis (ATCC® 14990™).
as §7

[11] = system: Enterococcus faecalis (ATCC 19433); test: MIC/MBC broth dilution; type: cell-based
Procedure: as §2, §8, §7

[12] = system: Staphylococcus epidermidis (ATCC 14990); test: MIC/MBC broth dilution; type: cell-based
Procedure: as §2, §8, §7

[13] = system: COX-1 expression in RAW 264.7 macrophages; test: Immunofluorescence, COX-1 expression; type: cell-based, murine; details: 25 µM, co-treated with LPS 1 µg/mL
Procedure: as §1

[14] = ABTS radical scavenging assay; type: biochemical
Procedure: The radical scavenging properties of the complexes on a 2,20-azino-bis(3-ethylbenzothiazoline-6-sulfonate) radical cation (ABTS^+) were evaluated as previously described.
All the complexes were used at different concentrations (5, 10, 25, 50, and 100 µg/mL) and the ABTS radical scavenging activity, measured at 730 nm using a microplate reader, was expressed as inhibition percentages (%IABTS) compared tothe control, according to the following expression:(3) IABTS (%)=ABSCTRL−ABSsample/ABSCTRL∗100 where ABSCTRL and ABSsample are the absorbance at 730 nm in the control and in the presence of samples, respectively.
IC50 values were calculated from the %IABTS using GraphPad Prism 9 software (GraphPad Inc., San Diego, CA, USA). Trolox was employed as a positive control, while caffeine and theophylline were reference compounds.

MCF-7 = test: MTT cell viability assay; type: cell-based, human; details: 72 h
Procedure: as §4, §5

MDA-MB-231 = test: MTT cell viability assay; type: cell-based, human; details: 72 h
Procedure: as §4, §5

[15] = system: iNOS expression in RAW 264.7 macrophages; test: Immunofluorescence, iNOS expression; type: cell-based, murine; details: 25 µM, co-treated with LPS 1 µg/mL
Procedure: as §1

[16] = system: ROS production in BALB/3T3 fibroblasts; test: Intracellular ROS detection with DCFH2-DA; type: cell-based, murine; details: 25 µM, 24 h pre-treatment
Procedure: In vitro detection of intracellular ROS on fibroblasts BALB/3T3 using DCFH2-DA The assay to evaluate the in vitro antioxidant activity was carried out using the murine BALB/3T3 fibroblasts that were plated in a white 96 MW and then treated with the complexes at a concentration of 25 µM for 24 h. Menadione (25 µM) was then added for 15 min to induce ROS production. After treatment, the cells were washed with PBS and treated with 25 μM 2′-7′-dichlorofluorescein diacetate (DCFH2-DA, Sigma-Aldrich, St. Louis, MO, USA), and then they were incubated for 40 min at 37 °C and 5% CO2. The probe DCFH2-DA penetrates cells where it is […] into a non-fluorescent form (DCFH2) by endogenous esterases. In the presence of intracellular ROS, non-fluorescent H2DCF is oxidized to the fluorescent 2′,7′-dichlorofluorescein (DCF). Then, the cells were washed with PBS and the fluorescence was detected using a multiplate reader (λex = 485 nm, λem = 535 nm). Based on the obtained fluorescence values, the ROS production inhibition % (IROS) vs. menadione was calculated using the following formula:(1) IROS vs. Menadione (%)=FMen−FSample/FMen∗100 where FMen represents the mean fluorescence obtained after treatment with menadione alone and Fsample represents the mean fluorescence obtained after the co-treatment with the complexes and menadione.

Compound	NF-κB intracellular localization [1]	M.I.C. S. typhimurium [2] [µg/mL]	M.I.C. P. aeruginosa [3] [µg/mL]	IC50 [4] [µM]	Reduction in NO production [5]	IC50 [6] [µM]	Reduction in COX-2 expression (fluorescence) [7]	M.I.C. E. coli [8] [µg/mL]	M.I.C. K. pneumoniae [9] [µg/mL]	M.I.C. S. aureus [10] [µg/mL]	M.I.C. E. faecalis [11] [µg/mL]	M.I.C. S. epidermidis [12] [µg/mL]	COX-1 protein expression level [13]	IC50 [14] [µM]	IC50 (MCF-7) [µM]	IC50 (MDA-MB-231) [µM]	iNOS expression level [15]	M.B.C. S. typhimurium [2] [µg/mL]	M.B.C. P. aeruginosa [3] [µg/mL]	M.B.C. E. coli [8] [µg/mL]	also measured
Cn1c(=O)c2c(n(C)[c]([Au-][I])[n+]2CCO)n(C)c1=O [AuL3]	mostly cytoplasmic	>200	>200	> 100	~14.12%	> 500	about 40%	>200	>200	>200	>200	>200	no difference in protein expression level	> 500	> 100	> 100	–	–	–	–	–
COc1ccc2c(c1)c(CC(=O)O)c(C)n2C(=O)c1ccc(Cl)cc1 [indomethacin, reference compound]	higher cytoplasmic localization of NF-κB	–	–	–	about 11.23%	–	about 30%	–	–	–	–	–	no difference in protein expression level	–	–	–	lower, reaching those obtained with the CTRL cells	–	–	–	–
CC(=O)[O][Ag-][c]1n(C)c2c(c(=O)n(C)c(=O)n2C)[n+]1CC(O)c1ccccc1 (racemic) [AgL1OAc, 1,3,7-Trimethylxanthin-9-[(2-hydroxy-2-phenyl)ethyl-8-ylidene]Ag(I) Acetate]	–	150	125	> 100	–	> 500	–	–	125	125	150	125	–	149.2 ± 0.7	39.6 ± 0.8	32.3 ± 0.9	–	> 200	> 150	> 150	M.B.C. K. pneumoniae [9]: > 150 µg/mL; M.B.C. S. aureus [10]: > 150 µg/mL; M.B.C. E. faecalis [11]: > 200 µg/mL; M.B.C. S. epidermidis [12]: > 150 µg/mL; ROS level reduction vs. menadione [16]: about 61%
CC(=O)[O][Ag-][c]1n(C)c2c(c(=O)n(C)c(=O)n2C)[n+]1CCO [AgL3OAc, 1,3,7-Trimethylxanthin-9-[(2-hydroxy)ethyl)-8-ylidene]Ag(I) Acetate]	mostly cytoplasmic	150	150	> 100	about 14.35%	> 500	about 60%	–	150	125	150	100	no difference in protein expression level	> 500	> 100	> 100	net reduction in iNOS expression	> 200	> 200	> 200	M.B.C. K. pneumoniae [9]: > 200 µg/mL; M.B.C. S. aureus [10]: > 200 µg/mL; M.B.C. E. faecalis [11]: > 200 µg/mL; M.B.C. S. epidermidis [12]: > 125 µg/mL
1,3,7-Trimethylxanthin-9-[(2-hydroxy-2-phenyl)ethyl-8-ylidene]Au(I) Acetate [AuL1OAc]	–	>200	>200	> 100	–	> 500	–	>200	>200	>200	>200	>200	–	> 500	> 100	> 100	–	–	–	–	ROS level reduction vs. menadione [16]: ~54%
